Reference: patent US20150299188A1, “HETEROCYCLIC COMPOUND” (priority 2012, published 2015)

What follows are molecules tested on FLAP (5-lipoxygenase activating protein) (assay: In vitro binding test: displacement of [3H]-7-chloro-3-(5-((3-fluoropyridin-2-yl)methoxy)-2-methylphenyl)-3,4-dihydroquinazolin-2(1H)-one from Sf9 microsome fractions). Details: Sf9 microsome fractions expressing FLAP; 100% = radioligand binding with 10 μM sodium 3-(3-(tert-butylsulfanyl)-1-(4-chlorobenzyl)-5-isopropyl-1H-indol-2-yl)-2,2-dimethylpropanoate, 0% = DMSO; test compound concentration not given.
Set-up: species or system human and mouse
Procedure: As an assay buffer, 100 mM Tris-HCl, pH 7.5, 140 mM NaCl, 2 mM EDTA, 0.5 mM dithiothreitol, 5% glycerol, 0.05% Tween20 was used. Sf9 microsome fractions expressing human and mouse FLAPs were dispensed by 50 μL to a 96-well plate at 2 μg/mL. Furthermore, a test compound (25 μL) diluted 4-fold of the final concentration with the assay buffer was added and mixed therewith, and the mixture was incubated at room temperature for 10 min. Furthermore, 120 nM [^3H]-7-chloro-3-(5-((3-fluoropyridin-2-yl)methoxy)-2-methylphenyl)-3,4-dihydroquinazolin-2(1H)-one was added by 25 μL, and mixed therewith, and the mixture was incubated at room temperature for 60 min. Thereafter, the cells were transferred to a 96-well GF/B Unifilter plate with a FilterMate cell harvester, and washed 3 times with a wash buffer (100 mM Tris-HCl pH 7.5, 0.05% Tween20, 200 μL) cooled to 4° C. The GF/B Unifilter plate was dried at 37° C., Microscint 0 was added and measured by TopCount NXT (PerkinElmer). As for the inhibitory activity, the inhibitory rate was calculated wherein the [^3H]-7-chloro-3-(5-((3-fluoropyridin-2-yl)methoxy)-2-methylphenyl)-3,4-dihydroquinazolin-2(1H)-one binding amount in the presence of 10 μM sodium 3-(3-(tert-butylsulfanyl)-1-(4-chlorobenzyl)-5-isopropyl-1H-indol-2-yl)-2,2-dimethylpropanoate was 100%, and the [^3H]-7-chloro-3-(5-((3-fluoropyridin-2-yl)methoxy)-2-methylphenyl)-3,4-dihydroquinazolin-2(1H)-one binding amount in the presence of DMSO was 0%.

| inhibitory rate (%) | SMILES |
| --- | --- |
| 105% | O=C1Nc2cn(CC3CC3)nc2CN1c1cc(OCc2ncccc2F)ccc1Br [Example 360, 6-(2-bromo-5-((3-fluoropyridin-2-yl)methoxy)phenyl)-2-(cyclopropylmethyl)-2,4,6,7-tetrahydro-5H-pyrazolo[4,3-d]pyrimidin-5-one] |
| 90% | Cc1ccc(OCc2ncccc2F)cc1N1Cc2ccc(C(=O)N3CCCC(O)C3)cc2NC1=O (stereo not shown) [Example 227, 3-(5-((3-fluoropyridin-2-yl)methoxy)-2-methylphenyl)-7-((3-hydroxypiperidin-1-yl)carbonyl)-3,4-dihydroquinazolin-2(1H)-one] |
| 98% | O=C1Nc2c(C3=CCOCC3)ncc(Cl)c2CN1c1cc2c(cc1Cl)CCC(c1ncccc1F)O2 (stereo not shown) [Example 127, 5-chloro-3-(6-chloro-2-(3-fluoropyridin-2-yl)-3,4-dihydro-2H-chromen-7-yl)-8-(3,6-dihydro-2H-pyran-4-yl)-3,4-dihydropyrido[3,4-d]pyrimidin-2(1H)-one] |
| 106% | O=C1Nc2c(N3CCC(O)CC3)ncc(Cl)c2CN1c1cc2c(cc1Cl)CCC(c1ncccc1F)O2 (stereo not shown) [Example 109, 5-chloro-3-(6-chloro-2-(3-fluoropyridin-2-yl)-3,4-dihydro-2H-chromen-7-yl)-8-(4-hydroxypiperidin-1-yl)-3,4-dihydropyrido[3,4-d]pyrimidin-2(1H)-one] |
| 90% | CCOc1ncc(Cl)c2c1NC(=O)N(c1cc3c(cc1C)CCC(c1ncccc1F)O3)C2 (stereo not shown) [Example 161, 5-chloro-8-ethoxy-3-(2-(3-fluoropyridin-2-yl)-6-methyl-3,4-dihydro-2H-chromen-7-yl)-3,4-dihydropyrido[3,4-d]pyrimidin-2(1H)-one] |
| 102% | Cc1ccc(OCc2ncccc2F)cc1N1Cc2c(Cl)cccc2NC1=O [Example 242, 5-chloro-3-(5-((3-fluoropyridin-2-yl)methoxy)-2-methylphenyl)-3,4-dihydroquinazolin-2(1H)-one] |
| 92% | Cc1ccc(OCc2ncccc2F)cc1N1Cc2ccncc2NC1=O [Example 259, 3-(5-((3-fluoropyridin-2-yl)methoxy)-2-methylphenyl)-3,4-dihydropyrido[3,4-d]pyrimidin-2(1H)-one] |
| 96% | O=C1Nc2cc(OC(F)F)nc(C3CC3)c2CN1c1cc2c(cc1Cl)CC[C@@H](c1ncccc1F)O2 [Example 20, 3-((2S)-6-chloro-2-(3-fluoropyridin-2-yl)-3,4-dihydro-2H-chromen-7-yl)-5-cyclopropyl-7-(difluoromethoxy)-3,4-dihydropyrido[4,3-d]pyrimidin-2(1H)-one] |
| 106% | CC(C)(O)CNC(=O)c1cc2c(c(C3CC3)n1)CN(c1cc3c(cc1Cl)CCC(c1ncccc1F)O3)C(=O)N2 (stereo not shown) [Example 114, 3-(6-chloro-2-(3-fluoropyridin-2-yl)-3,4-dihydro-2H-chromen-7-yl)-5-cyclopropyl-N-(2-hydroxy-2-methylpropyl)-2-oxo-1,2,3,4-tetrahydropyrido[4,3-d]pyrimidine-7-carboxamide] |
| 104% | Cc1ccc(OCc2ncccc2F)cc1-n1c(=O)[nH]c2cc(C(F)(F)F)ccc2c1=O [Example 357, 3-(5-((3-fluoropyridin-2-yl)methoxy)-2-methylphenyl)-7-(trifluoromethyl)quinazoline-2,4(1H,3H)-dione] |
| 102% | O=C1Nc2ccnc(Cl)c2CN1c1cc2c(cc1Cl)CC[C@@H](c1ncccc1F)O2 [Example 2, 5-chloro-3-((2S)-6-chloro-2-(3-fluoropyridin-2-yl)-3,4-dihydro-2H-chromen-7-yl)-3,4-dihydropyrido[4,3-d]pyrimidin-2(1H)-one] |
| 81% | Cc1ccc(OCc2c(F)cccc2F)cc1N1Cc2ccc(CN)cc2NC1=O [Example 206, 7-(aminomethyl)-3-(5-((2,6-difluorobenzyl)oxy)-2-methylphenyl)-3,4-dihydroquinazolin-2(1H)-one] |
| 109% | O=C1Nc2cc(CO)nc(C3CC3)c2CN1c1cc2c(cc1Cl)CCC(c1ncccc1F)O2 (stereo not shown) [Example 73, 3-(6-chloro-2-(3-fluoropyridin-2-yl)-3,4-dihydro-2H-chromen-7-yl)-5-cyclopropyl-7-(hydroxymethyl)-3,4-dihydropyrido[4,3-d]pyrimidin-2(1H)-one] |
| 106% | Cc1ccc(OCc2ncccc2F)cc1N1Cc2c(cccc2C(F)(F)F)NC1=O [Example 297, 3-(5-((3-fluoropyridin-2-yl)methoxy)-2-methylphenyl)-5-(trifluoromethyl)-3,4-dihydroquinazolin-2(1H)-one] |
| 104% | Cc1ncc(Cl)c2c1NC(=O)N(c1cc3c(cc1Cl)CC[C@@H](c1ncccc1F)O3)C2 [Example 9, 5-chloro-3-((2S)-6-chloro-2-(3-fluoropyridin-2-yl)-3,4-dihydro-2H-chromen-7-yl)-8-methyl-3,4-dihydropyrido[3,4-d]pyrimidin-2(1H)-one] |
| 86% | COC(=O)c1ccc2c(c1)NC(=O)N(c1cc(OCc3csc(C)n3)ccc1C)C2 [Example 211, methyl 3-(2-methyl-5-((2-methyl-1,3-thiazol-4-yl)methoxy)phenyl)-2-oxo-1,2,3,4-tetrahydroquinazoline-7-carboxylate] |
| 102% | Cc1cc2c(cc1N1Cc3c(cc(Oc4ccnn4C)nc3C3CC3)NC1=O)OC(c1ncccc1F)CC2 (stereo not shown) [Example 141, 5-cyclopropyl-3-(2-(3-fluoropyridin-2-yl)-6-methyl-3,4-dihydro-2H-chromen-7-yl)-7-((1-methyl-1H-pyrazol-5-yl)oxy)-3,4-dihydropyrido[4,3-d]pyrimidin-2(1H)-one] |
| 62% | Cc1ccc(OCc2ncccc2F)cc1N1Cc2c(Cl)ncnc2NC1=O [Example 318, 5-chloro-3-(5-((3-fluoropyridin-2-yl)methoxy)-2-methylphenyl)-3,4-dihydropyrimido[4,5-d]pyrimidin-2(1H)-one] |
| 91% | Cc1cc2c(cc1N1Cc3c(cc(C4CC4)nc3-c3ccnn3C)NC1=O)OC(c1ncccc1F)CC2 (stereo not shown) [Example 104, 7-cyclopropyl-3-(2-(3-fluoropyridin-2-yl)-6-methyl-3,4-dihydro-2H-chromen-7-yl)-5-(1-methyl-1H-pyrazol-5-yl)-3,4-dihydropyrido[4,3-d]pyrimidin-2(1H)-one] |
| 107% | Cc1ccc(OCc2ncccc2F)cc1N1Cc2c(Cl)cc(C(=O)O)cc2NC1=O [Example 292, 5-chloro-3-(5-((3-fluoropyridin-2-yl)methoxy)-2-methylphenyl)-2-oxo-1,2,3,4-tetrahydroquinazoline-7-carboxylic acid] |
| 96% | Cc1cc2c(cc1N1Cc3ccc(C(=O)N4CCOCC4)cc3NC1=O)OC(c1ncccc1F)CC2 (stereo not shown) [Example 183, 3-(2-(3-fluoropyridin-2-yl)-6-methyl-3,4-dihydro-2H-chromen-7-yl)-7-(morpholin-4-ylcarbonyl)-3,4-dihydroquinazolin-2(1H)-one] |
| 94% | CNC(=O)c1cc2c(c(C3CC3)n1)CN(c1cc3c(cc1Cl)CCC(c1ncccc1F)O3)C(=O)N2 (stereo not shown) [Example 99, 3-(6-chloro-2-(3-fluoropyridin-2-yl)-3,4-dihydro-2H-chromen-7-yl)-5-cyclopropyl-N-methyl-2-oxo-1,2,3,4-tetrahydropyrido[4,3-d]pyrimidine-7-carboxamide] |
| 103% | Cc1ccc(OCc2c(F)cccc2F)cc1N1Cc2ccc(C#N)cc2NC1=O [Example 204, 3-(5-((2,6-difluorobenzyl)oxy)-2-methylphenyl)-2-oxo-1,2,3,4-tetrahydroquinazoline-7-carbonitrile] |
| 105% | Cc1cc2c(cc1N1Cc3c(ccnc3Cl)NC1=O)OC(c1ccccn1)CC2 (stereo not shown) [Example 51, 5-chloro-3-(6-methyl-2-(pyridin-2-yl)-3,4-dihydro-2H-chromen-7-yl)-3,4-dihydropyrido[4,3-d]pyrimidin-2(1H)-one] |
| 70% | Cc1ccc(OCc2ncccc2F)cc1N1Cc2nn(C)cc2NC1=O [Example 250, 6-(5-((3-fluoropyridin-2-yl)methoxy)-2-methylphenyl)-2-methyl-2,4,6,7-tetrahydro-5H-pyrazolo[4,3-d]pyrimidin-5-one] |
| 104% | Cc1ccc(OCc2ncccc2F)cc1-n1c(=O)[nH]c2ccccc2c1=O [Example 337, 3-(5-((3-fluoropyridin-2-yl)methoxy)-2-methylphenyl)quinazoline-2,4(1H,3H)-dione] |
| 96% | O=c1[nH]c2ccccc2c(=O)n1-c1cccc(OCc2ncccc2F)c1 [Example 346, 3-(3-((3-fluoropyridin-2-yl)methoxy)phenyl)quinazoline-2,4(1H,3H)-dione] |
| 87% | N#Cc1ccc(OCc2ncccc2F)cc1N1Cc2ccccc2NC1=O [Example 224, 4-((3-fluoropyridin-2-yl)methoxy)-2-(2-oxo-1,4-dihydroquinazolin-3(2H)-yl)benzonitrile] |
